Values after ≈ are worked out from the molar mass of the structure shown.
The compounds below were run on Vaccinia virus (assay: Minimum inhibitory concentration required to reduce vaccinia virus induced cytopathogenicity by 50% in primary rabbit kidney cells (PRK)). Conditions: Orthopoxvirus vaccinia.
Type: functional
Compound `Cn1cc([N+](=O)[O-])cc1C(=O)NCCC#N` has an MIC greater than 200 mg/L.
In the case of `Cn1c(C(=O)NCCC#N)ccc1[N+](=O)[O-]`, the MIC is reported as greater than 200 mg/L.
Compound `COC(=O)c1ccc([N+](=O)[O-])n1C` has an MIC greater than 400 mg/L.
Work on `Cn1cc(NC(=O)c2cc([N+](=O)[O-])cn2C)cc1C(=O)O` yielded an MIC greater than 400 mg/L.
`CC(NC(=O)C(C)NC(=O)c1cc(NC(=O)c2cc(NC(=O)CNC(=N)N)cn2C)cn1C)C(=O)O` (centres undefined) showed an MIC greater than 400 mg/L.
`CC(NC(=O)c1cc(NC(=O)c2cc(NC(=O)CNC(=N)N)cn2C)cn1C)C(=O)O` (centres undefined) was tested, and the MIC was greater than 200 mg/L.
For `CC(NC(=O)c1cc(NC(=O)c2cc(NC(=O)CNC(=N)N)cn2C)cn1C)C(=O)OC(C)(C)C` (centres undefined), the MIC was 150 mg/L (≈ 307 µM).
With `Cn1cc(NC(=O)c2cc(NC(=O)CNC(=N)N)cn2C)cc1C(=O)NCCCNCCCCN` the MIC was greater than 200 mg/L.
Work on `CC(NC(=O)c1cc(NC(=O)c2cc(NC(=O)CNC(=N)N)cn2C)cn1C)C(=O)NC(C)C(=O)OC(C)(C)C` (centres undefined) yielded an MIC greater than 200 mg/L.
Work on `Cn1cc(NC(=O)CNC(=N)N)cc1C(=O)NCCCNCCCCN` yielded an MIC greater than 400 mg/L.
Compound `CC(NC(=O)c1cc(NC(=O)c2cc([N+](=O)[O-])cn2C)cn1C)C(=O)OC(C)(C)C` (centres undefined) has an MIC greater than 40 mg/L.
`Cn1cc(NC(=O)c2cc([N+](=O)[O-])cn2C)cc1C(=O)NCCC#N` was tested, and the MIC was greater than 10 mg/L.
Compound `Cn1cc(NC(=O)c2cc([N+](=O)[O-])cn2C)cc1C(=O)NCCC(=N)N` has an MIC greater than 100 mg/L.
For `CC(NC(=O)c1cc(NC(=O)c2cc([N+](=O)[O-])cn2C)cn1C)C(=O)NC(C)C(=O)OC(C)(C)C` (centres undefined), the MIC was greater than 100 mg/L.
Work on `Cn1cc([N+](=O)[O-])cc1C(=O)O` yielded an MIC greater than 400 mg/L.
`Cn1c(C(=O)O)ccc1[N+](=O)[O-]` showed an MIC greater than 200 mg/L.
Compound `COC(=O)c1cc(NC(=O)c2cc([N+](=O)[O-])cn2C)cn1C` has an MIC greater than 10 mg/L.
`C[C@H](NC(=O)[C@H](C)NC(=O)[C@H](C)NC(=O)c1cc(NC(=O)c2cc(NC(=O)CNC(=N)N)cn2C)cn1C)C(=O)O` gave an MIC greater than 400 mg/L.
Compound `C[C@H](NC(=O)c1cc(NC(=O)c2cc(NC(=O)CNC(=N)N)cn2C)cn1C)C(=O)N[C@@H](C)C(=O)N[C@@H](C)C(=O)OC(C)(C)C` has an MIC greater than 100 mg/L.
Work on `C[C@H](NC(=O)c1cc(NC(=O)c2cc([N+](=O)[O-])cn2C)cn1C)C(=O)N[C@@H](C)C(=O)N[C@@H](C)C(=O)OC(C)(C)C` yielded an MIC greater than 100 mg/L.
Compound `Cn1cc([N+](=O)[O-])cc1C(=O)NCCC(=N)N` has an MIC greater than 200 mg/L.
`Cn1c(C(=O)NCCC(=N)N)ccc1[N+](=O)[O-]` gave an MIC greater than 100 mg/L.
For `Cn1cc([N+](=O)[O-])cc1C(=O)NCCCNCCCCN`, the MIC was greater than 200 mg/L.
Work on `Cn1cc(NC(=O)c2cc([N+](=O)[O-])cn2C)cc1C(=O)NCCCNCCCCN` yielded an MIC greater than 200 mg/L.
Compound `Nc1nccc2c1ncn2[C@@H]1C[C@H](CO)[C@@H](O)[C@H]1O` [3-DEAZAARISTEROMYCIN A] has an MIC of 2 mg/L (≈ 7.57 µM).
In the case of `Nc1ncnc2c1ncn2C[C@H](O)CO` [(S)-DHPA], the MIC is reported as 70 mg/L (≈ 335 µM).
`Cn1cc(NC(=O)c2cc(NC(=O)CNC(=N)N)cn2C)cc1C(=O)NCCC(=N)N` [NETROPSIN] showed an MIC of 70 mg/L (≈ 163 µM).
`NC(=O)c1ncn([C@@H]2O[C@H](CO)[C@@H](O)[C@H]2O)n1` [RIBAVIRIN] showed an MIC of 2 mg/L (≈ 8.19 µM).
`Nc1ncnc2c1ccn2[C@@H]1O[C@H](CO)[C@@H](O)[C@H]1O` [TUBERCIDIN] showed an MIC of 0.07 mg/L (≈ 0.263 µM).

— ChEMBL document CHEMBL1124462, “Synthesis, DNA binding, and biological evaluation of synthetic precursors and novel analogues of netropsin” (J Med Chem, 1989)
